Reference: patent publication US20250034170A1, “SMALL MOLECULE MODULATORS OF GLUCOCEREBROSIDASE ACTIVITY AND USES THEREOF” (Vanqua Bio, Inc., priority 2021, published 2025)

Target: T1, GCase (Homo sapiens, UniProt P04062)
T1 construct: endogenous in cells; host or cells: HeLa cells
T1 sequence (P04062 40-536): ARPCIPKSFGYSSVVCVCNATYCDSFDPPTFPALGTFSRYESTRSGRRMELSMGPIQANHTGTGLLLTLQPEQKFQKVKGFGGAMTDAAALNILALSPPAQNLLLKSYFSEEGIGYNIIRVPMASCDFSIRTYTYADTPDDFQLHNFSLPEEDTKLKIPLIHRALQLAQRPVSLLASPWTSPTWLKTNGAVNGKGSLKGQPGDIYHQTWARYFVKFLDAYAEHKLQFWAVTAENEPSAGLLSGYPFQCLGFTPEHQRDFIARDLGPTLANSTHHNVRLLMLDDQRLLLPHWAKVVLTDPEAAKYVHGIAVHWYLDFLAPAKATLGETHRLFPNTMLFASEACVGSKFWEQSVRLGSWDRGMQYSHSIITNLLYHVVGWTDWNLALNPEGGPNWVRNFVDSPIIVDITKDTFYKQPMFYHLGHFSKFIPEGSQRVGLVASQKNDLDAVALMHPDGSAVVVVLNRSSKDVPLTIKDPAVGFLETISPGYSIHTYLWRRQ
Experiment: activation of GCase in a live cell PFB assay in HELA cells
Format: cell-based
Procedure: Exemplary compounds were evaluated for activation of GCase in a live cell PFB assay in HELA cells (essentially as described in Ysselstein et al., “LRRK2 kinase activity regulates lysosomal glucocerebrosidase in neurons derived from Parkinson's disease patients” Nature Communications (2019) 10:5570). […] EC50 ranges: A: <10 μM; B: >10-50 μM; C: >50-100 μM; D: >100 μM.

[1] = activation of GCase, EC50 ranges

Row | Compound | EC50 (EC50 given as range classes) [µM] | EC50 [1] [µM]
1 | Cc1ncc(N2CCC3(CCN(c4cnc5cnn(CC(F)F)c5n4)CC3)C2)c(C(F)(F)F)n1 [Cmpd 601] | < 10 | –
2 | O=C(c1cccc(Cl)c1)N1CC2(CCN(c3cnc4cnn(CC(F)F)c4n3)C2)C1 [Cmpd 371] | – | < 10
3 | FC(F)Cn1ncc2ncc(N3CCC4(CC3)CC(COc3ccc(C(F)(F)F)nc3)C4)nc21 [Cmpd 701] | – | 10 to 50
4 | FC(F)(F)c1ccc(N2CCC3(CCN(c4cncc(-c5ncccn5)n4)CC3)C2)cn1 [Cmpd 252] | – | 10 to 50
5 | CC1CC2(CCN(c3cnc4cnn(CC(F)F)c4n3)CC2)CN1c1cc(C(F)(F)F)ccn1 (stereo not drawn) [Cmpd 749] | – | 10 to 50
6 | CCOc1nn(CC(F)F)c2nc(N3CCC4(CC3)CC(=O)N(c3ccc(C(F)(F)F)nc3)C4)cnc12 [Cmpd 947] | – | < 10
7 | FC(F)Cn1ncc2ncc(N3CCC4(CN(c5cnc(C(F)(F)F)cn5)C4)C3)nc21 [Cmpd 317] | – | 10 to 50
8 | CCN1C(=O)N(c2ccnc(C(F)(F)F)c2)C(=O)C12CCN(c1cnc3cnn(C4COC4)c3n1)CC2 [Cmpd 983] | 10 to 50 | –
9 | O=S(=O)(c1ccc(C(F)(F)F)cc1)N1CC2(CCN(c3cnc4cnn(CC(F)F)c4n3)C2)C1 [Cmpd 372] | – | 10 to 50
10 | CC(C)c1ncc(N2CC3(CCN(c4cnc5cnn(CC(F)F)c5n4)C3)C2)cn1 [Cmpd 559] | – | 10 to 50
11 | Cc1cc(N2CC3(CCN(c4ncc5cnn(CC(F)(F)F)c5n4)C3)C2)nc(C(F)(F)F)n1 [Cmpd 467] | – | < 10
12 | FC(F)Cn1ncc2ncc(N3CCC4(CC3)CC(COc3ccncc3C(F)(F)F)C4)nc21 [Cmpd 698] | – | < 10
13 | Cc1nc(N2CCC3(CCN(c4ncc5cnn(CC(F)(F)F)c5n4)C3)C2)cc(C(F)(F)F)n1 (stereo not drawn) [Cmpd 548] | – | > 100
14 | FC(F)(F)c1ccc(N2CCC3(CCN(c4cncc(-n5cncn5)n4)CC3)C2)cn1 [Cmpd 253] | – | < 10
15 | CCn1c(N2CCC3(CN(c4nnc(C(F)(F)F)s4)C3)C2)nc2c(cnn2CC(F)F)c1=O [Cmpd 1050] | – | 10 to 50
16 | O=C1CC2(CCN(c3cnc4cnn(CC(F)F)c4n3)CC2)CN1c1cncc(Cl)c1 [Cmpd 893] | – | < 10
17 | Cc1nn(CC(F)F)c2nc(N3CCC4(CC3)CC(=O)N(c3ccnc(C(F)(F)F)n3)C4)cnc12 [Cmpd 898] | – | < 10
18 | Cc1nc(C(F)(F)F)ncc1N1CCC2(CCN(c3ncc4c(C)nn(CC(F)(F)F)c4n3)C2)C1 (stereo not drawn) [Cmpd 658] | – | 10 to 50
19 | Cc1cc(N2CC3(CCN(c4cnc5cnn(CC(C)(F)F)c5n4)C3)C2)nc(C(F)(F)F)n1 [Cmpd 1134] | – | > 100
20 | COc1nn(C2COC2)c2nc(N3CCC4(CC3)CC(=O)N(c3ccc(C(F)(F)F)nc3)C4)cnc12 [Cmpd 950] | – | > 100
21 | O=C1CC2(CCN(c3cnc4cnn(CC(F)F)c4n3)CC2)CN1Cc1ccc(OC(F)F)cc1 [Cmpd 442] | – | < 10

Row | Compound | EC50 (EC50 given as range classes) [µM] | EC50 [1] [µM]
22 | O=C1N(c2cc(C(F)(F)F)ccn2)C2(CC2)CC12CCN(c1cnc3cnn(CC(F)F)c3n1)CC2 [Cmpd 311] | – | 10 to 50
23 | Cc1nn(CC(F)F)c2nc(N3CCC4(CC3)CC(=O)N(c3nccc(C(F)(F)F)n3)C4)cnc12 [Cmpd 282] | – | < 10
24 | Cc1nc(N2CC3(CCN(c4cnc5c(C)nn(C6COC6)c5n4)CC3)C2)cc(C(F)(F)F)n1 [Cmpd 565] | – | 10 to 50
25 | O=C1N(Cc2cnc(C(F)(F)F)nc2)CCC12CCN(c1cnc3cnn(CC(F)F)c3n1)CC2 [Cmpd 843] | – | 10 to 50
26 | Cn1c(N2CCC3(CCN(c4ccc(C(F)(F)F)nc4)C3)CC2)nc2c(cnn2CC(F)F)c1=O [Cmpd 1054] | – | < 10
27 | CC1(C)CC2(CCN(c3cnc4cnn(CC(F)F)c4n3)CC2)C(=O)N1c1ccc(C(F)(F)F)nc1 [Cmpd 815] | 10 to 50 | –
28 | O=C1CC2(CCN(c3cnc4cnn(CC(F)F)c4n3)CC2)CN1Cc1ccc(OC(F)(F)F)nc1 [Cmpd 918] | – | 10 to 50
29 | O=C1N(c2cc(C(F)(F)F)ccn2)CCC12CCN(c1ncc3cnn(CC(F)F)c3n1)CC2 [Cmpd 285] | – | 10 to 50
30 | Cc1ncc(N2CC3(CCN(c4cnc5c(C)nn(C6COC6)c5n4)C3)C2)c(C(F)(F)F)n1 [Cmpd 599] | 10 to 50 | –
31 | Cc1nn(C2COC2)c2nc(N3CCC4(CCN(c5cnc(C(F)(F)F)nc5)C4)C3)cnc12 (stereo not drawn) [Cmpd 534] | – | < 10
32 | O=C(c1nc2ccccc2cc1C1CC1)N1CCC2(CC1)CCN(c1cc(C(F)(F)F)ccn1)C2=O [Cmpd 269] | – | 10 to 50
33 | C[C@H]1CN(c2cnc3cnn(CC(F)F)c3n2)CC[C@@]12CCN(c1cccc(C(F)(F)F)n1)C2=O (racemic) [Cmpd 669] | – | 10 to 50
34 | FC(F)(F)c1ncc(N2CC3(CCN(c4cncc(-c5nnc(C(F)(F)F)s5)n4)C3)C2)cn1 [Cmpd 1025] | < 10 | –
35 | FC(F)Cn1ncc2ncc(N3CCC4(C3)CN(c3ncc(C(F)(F)F)cn3)C4)nc21 [Cmpd 319] | – | 10 to 50
36 | FC(F)Cn1ncc2ncc(NC3CCC4(C3)CN(c3cc(C(F)(F)F)ccn3)C4)nc21 (stereo not drawn) [Compound 190, N-[1-(2,2-difluoroethyl)-1H-pyrazolo[3,4-b]pyrazin-6-yl]-2-[4-(trifluoromethyl)pyridin-2-yl]-2-azaspiro[3.4]octan-6-amine] | < 10 | –
37 | Cc1nn(CC(F)F)c2nc(N3CCC4(CCN(c5ccnc(C(F)(F)F)c5)C4=O)C3)cnc12 (stereo not drawn) [Cmpd 514] | – | < 10
38 | Cn1c(N2CCC3(CN(c4cnc(C(F)(F)F)nc4)C3)C2)nc2c(cnn2CC(F)F)c1=O [Cmpd 988] | < 10 | –
39 | O=C1CC2(CC3CCC(C2)N3c2cnc3cnn(CC(F)F)c3n2)CN1c1cc(C(F)(F)F)ccn1 (stereo not drawn) [Cmpd 723] | – | 10 to 50
40 | O=C1CC2(CCN(c3cnc4cnn(CC(F)F)c4n3)CC2)C(CC(F)F)N1c1ccnc(C(F)(F)F)c1 (stereo not drawn) [Cmpd 955] | – | < 10
41 | FC(F)Cn1ncc2ncc(N3CCC4(CN(c5cc(C(F)(F)F)ccn5)C4)C3)nc21 [Compound 187, 6-[1-(2,2-difluoroethyl)-1H-pyrazolo[3,4-b]pyrazin-6-yl]-2-[4-(trifluoromethyl)pyridin-2-yl]-2,6-diazaspiro[3.4]octane] | 10 to 50 | –
42 | O=C1CC2(CN1c1cnc(C(F)(F)F)cn1)C1CCC2CN(c2cnc3cnn(CC(F)F)c3n2)C1 (stereo not drawn) [Cmpd 805] | 10 to 50 | –

Row | Compound | EC50 (EC50 given as range classes) [µM] | EC50 [1] [µM]
43 | O=C(c1ccc(OC(F)F)cc1)N1CC2(CCN(c3cnc4cnn(CC(F)F)c4n3)C2)C1 [Cmpd 387] | 10 to 50 | –
44 | FC(F)Cn1ncc2ncc(N3CC4(CCN(c5ncccc5C(F)(F)F)CC4)C3)nc21 [Compound 123, 2-[1-(2,2-difluoroethyl)-1H-pyrazolo[3,4-b]pyrazin-6-yl]-7-[3-(trifluoromethyl)pyridin-2-yl]-2,7-diazaspiro[3.5]nonane] | – | 10 to 50
45 | O=C1CCC2(CCN(c3cnc4cnn(CC(F)F)c4n3)C2)CN1c1ccc(C(F)(F)F)nc1 (stereo not drawn) [Cmpd 790] | < 10 | –
46 | CCc1nn(CC(F)F)c2nc(N3CCC4(CN(c5cc(C(F)(F)F)nc(C)n5)C4)C3)ncc12 [Cmpd 1066] | – | 10 to 50
47 | FC(F)Cn1ncc2cnc(N3CCC4(CC3)CN(c3cc(C(F)(F)F)ccn3)C4)nc21 [Cmpd 492] | – | 10 to 50
48 | O=C1N(c2cc(C(F)(F)F)ccn2)CCC12CCN(c1cncc(-n3ccnc3)n1)CC2 [Cmpd 242] | – | 10 to 50
49 | O=C1N(c2cc(C(F)(F)F)ccn2)CCC12CCN(c1nccn3cncc13)CC2 [Cmpd 264] | – | > 100
50 | Cc1nc(N2CC[C@]3(CCN(c4ncc5c(C)nn(C6COC6)c5n4)C3)C2)cc(C(F)(F)F)n1 [Cmpd 1079] | – | 10 to 50
51 | Cc1nc(N2CCC3(CCN(c4ncc5c(C)nn(CC(F)F)c5n4)C3)C2)cc(C(F)(F)F)n1 (stereo not drawn) [Cmpd 541] | – | < 10
52 | FC(F)(F)c1cncc(N2CCC3(CCN(c4cnc5cnn(C6COC6)c5n4)CC3)C2)n1 [Cmpd 768] | – | < 10
53 | FC(F)(F)c1cc(N2CC3(CCN(c4cncc(-c5nccs5)n4)C3)C2)ccn1 [Cmpd 1027] | 10 to 50 | –
54 | O=C1CC2(CN1c1ccnc(C(F)(F)F)c1)C1CC2CN(c2cnc3cnn(CC(F)F)c3n2)C1 (stereo not drawn) [Cmpd 721] | – | > 100
55 | Cc1nc(C(F)(F)F)cnc1N1CCC2(CCN(c3cnc4cnn(CC(F)F)c4n3)CC2)C1 [Cmpd 786] | < 10 | –
56 | FC(F)Cn1ncc2ncc(N3CCC4(CC3)CC(Nc3ccc(C(F)(F)F)nc3)C4)nc21 [Cmpd 230] | 10 to 50 | –
57 | O=C1N(c2ccc(C(F)(F)F)nc2)C(=O)C2(CCN(c3cnc4cnn(CC(F)F)c4n3)CC2)N1Cc1cncc(F)c1 [Cmpd 883] | – | 10 to 50
58 | FC(F)(F)Cn1ncc2cnc(N3CCC4(CCN(c5ccnc(C(F)(F)F)c5)C4)C3)nc21 (stereo not drawn) [Cmpd 489] | – | 10 to 50
59 | Cn1c(N2CCC3(CCN(c4ccnc(C(F)(F)F)n4)C3)CC2)nc2c(cnn2CC(F)F)c1=O [Cmpd 1014] | < 10 | –
60 | O=C1N(c2ccc(C(F)(F)F)nc2)C(=O)C2(CCN(c3ncc4cnn(CC(F)F)c4n3)CC2)N1CC(F)F [Cmpd 875] | – | < 10
61 | Cc1nc(N2CCC3(C2)CN(c2cnc4cnn(C5COC5)c4n2)C3)cc(C(F)(F)F)n1 [Cmpd 555] | – | < 10
62 | O=C1CC2(CCN(c3ncc4cnn(CC(F)F)c4n3)CC2)CN1c1ccnc(C(F)(F)F)n1 [Cmpd 901] | – | < 10
63 | Cc1nn(CC(F)F)c2nc(N3CC4(CCCN(c5ccc(C(F)F)nc5)C4)C3)cnc12 [Compound 159, 2-[1-(2,2-difluoroethyl)-3-methyl-1H-pyrazolo[3,4-b]pyrazin-6-yl]-6-[6-(difluoromethyl)pyridin-3-yl]-2,6-diazaspiro[3.5]nonane] | – | > 100
